{
  "source": "patent US20190038723A1",
  "about": "“Inhibiting UVB-Irradiation Damage By Targeting Nitric Oxide Synthases (cNOS)” (priority 2016, published 2019)",
  "assay_type_in_all_cases": "cell-based, human",
  "key": {"HaCaT cells [1]": {"test_system": "HaCaT cells", "assay": "Neutral comet assay of UVB-induced DNA damage in HaCaT cells", "conditions": "for reduction of UVB-induced DNA breakage in keratinocytes: L-NAME 1 mM, UVB 10 mJ/cm^2", "description": "FIGS. 10A-10B: UVB-induced DNA damage in HaCaT cells. The image (FIG. 10A) was captured by Cytation 3 Imaging Analyzer (BioTek, Winooski, Vt.); and, the DNA density (FIG. 10B) was analyzed by ImageJ (Version 1.46r. NIH) with Comet Assay Plugin (Pathology & Lab Med UNC-CH). *: p-value<0.05 vs. DMSO alone; **: p-value<0.05 vs. NAME. ***: p-value<0.05 vs. UV+DMSO. The data represents an average of DNA damage analysis for more than five cells.\nTo assess the effect of cNOS inhibitor on UVB-induced DNA damage in keratinocutes, HaCaT cells were treated with DMSO (solvent) or L-NAME (1 mM) for 1 hour prior to UVB radiation (10 mJ/cm^2). At […] post-UVB, the cells were collected and DNA damage was determined using a neutral comet assay kit following manufacture's protocol (Trevigen, Gaithersburg, Md.)."}, "HaCaT cells [2]": {"test_system": "HaCaT cells", "assay": "Soft-agar cell transformation assay after UVB", "conditions": "UVB every other day for 14 days", "description": "FIG. 11: UVB-induced HaCaT cells transformation. The cell transformation was determined using a Transformation assay kit (Cell Biolabs, Inc.). *: p-value<0.05 vs. control. **: p-value<0.05 vs. UVB alone. The data represents an average of 3 sets of independent experiments.\nTo determine the chemoprevetive function of cNOS inhibitor for UVB-induced skin cell transformation, cells were treated with sham or UVB every other day for 14 days in the presence or absence of L-NAME (1 mM in media) all time. The cells were detached from plate and same amount of cells were seeded in soft-agar in 96-well microtiter plate. At day 10, the cells alone with soft-agar were solubilized in the wells using Cytoselect buffer (Cell Biolabs, Inc., San Diego, Calif.) and the amount of transformed cells was determined by fluorescence intensity using a Spectra Max M2 fluorescent platereader (Molecular Devices)."}, "IKKα mRNA": {"test_system": "IKKα mRNA", "assay": "Quantitative real-time PCR of IKKα mRNA expression after UVB", "conditions": "HaCaT pre-treated with actinomycin D 5 μg/mL, UVB 50 mJ/cm^2", "description": "FIG. 3: Quantitative real-time PCR analysis of mRNA expression of IKKα in HaCaT human keratinocyte. The cells were pre-treated with DMSO or […] (Act.D, 5 μg/mL) and treated with of UVB (50 mJ/cm^2). The mRNA expression was normalized to GAP OH expression and depicted as fold change vs. DMSO control."}},
  "note": "Starred links: 1 amine or outer side, 2 acyl side, 3 side chain; linkers in the order of their positions; H or OH if unused. Positions of bridges follow the written chain, without caps; N, C: chain ends. Non-standard residues stand in square brackets, D forms with d. Residues, ends and D or L forms follow the SMILES beside them. Chains are numbered I, II in the order given. Actinocin(9to1) = Cc1c2oc3c(C)ccc(C(=O)[*:1])c3nc-2c(C(=O)[*:2])c(N)c1=O; NMeV = CN[C@H](C(=O)O)C(C)C; Sar = CNCC(=O)O",
  "data": [
    {"compound": "COC(=O)[C@@H](N)CCCNC(=N)N[N+](=O)[O-]", "note": "[L-NAME]", "values": [
      {"measurement": "percentage of UVB-induced tail DNA content", "setting": "HaCaT cells [1]; L-NAME 1 mM for 1 hour prior to UVB 10 mJ/cm^2, cells collected at 30 mM post-UVB, UVB+DMSO 49.2%", "value": 32.4, "unit": "%"},
      {"measurement": "tail DNA content, L-NAME alone", "setting": "HaCaT cells [1]; L-NAME 1 mM without UVB, DMSO alone 20.7%", "value": 25.6, "unit": "%"},
      {"measurement": "reduction of UVB-induced DNA breakage in keratinocytes", "setting": "HaCaT cells [1]; Control = DMSO alone", "value": 58.9, "unit": "%"},
      {"measurement": "reduction of UVB-induced DNA breakage in keratinocytes", "setting": "HaCaT cells [1]; Control = L-NAME alone", "value": 71.2, "unit": "%"},
      {"measurement": "suppression of UVB-induced transformation of keratinocytes", "setting": "HaCaT cells [2]; L-NAME 1 mM in media", "value": "almost totally suppresses"},
      {"measurement": "reading of transformed cells (fluorescence intensity)", "setting": "HaCaT cells [2]; L-NAME 1 mM in media all time, soft-agar day 10, UVB alone 3.2", "value": 1.3}
    ]},
    {"compound": "Cc1c2oc3c(C)ccc(C(=O)N[C@@H]4C(=O)N[C@H](C(C)C)C(=O)N5CCC[C@H]5C(=O)N(C)CC(=O)N(C)[C@@H](C(C)C)C(=O)O[C@@H]4C)c3nc-2c(C(=O)N[C@@H]2C(=O)N[C@H](C(C)C)C(=O)N3CCC[C@H]3C(=O)N(C)CC(=O)N(C)[C@@H](C(C)C)C(=O)O[C@@H]2C)c(N)c1=O", "note": "[actinomycin D] (I: T[dV]P[Sar][NMeV] / II: T[dV]P[Sar][NMeV]; ester I:1-I:C, II:1-II:C; linker I:N-II:N via Actinocin(9to1))", "values": [
      {"measurement": "effect on IKKα mRNA level post-UVB", "setting": "IKKα mRNA", "value": "does not have a statistically significant effect"}
    ]}
  ]
}
